In PubChem BioAssay (NCI) one finds TGI data, which are given here for 2 molecules.

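Briefly, cells in 96-well plates were exposed to five compound concentrations for 48 h, and endpoints were estimated by linear interpolation. TGI is the concentration that stops growth completely.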 Bounds are passed on as bounds.

What all share (assay): NCI-60 cell line screen, 48 h
Experiment [1] concerns 786-0 renal.
For experiment [2], the system named is A498 renal.
Experiment [3] deals with CCRF-CEM leukemia.
Experiment [4] deals with K-562 leukemia.
For experiment [5], the system named is M14 melanoma.
For experiment [6], the system named is MDA-N.
Experiment [7] concerns NCI/ADR-RES ovarian.
For experiment [8], the system named is SF-539 CNS.
The test system of experiment [9] is SK-MEL-28 melanoma.
The test system of experiment [10] is TK-10 renal.
Experiment [11] has as its system U251 CNS.

`CCCCc1c2c(c(C)c3c1C(=O)OC3)Oc1ccccc1O2`: the TGI in experiment [1] was greater than 36.9 µM; in experiment [2] it was greater than 46.5 µM; in experiment [3], greater than 100 µM; in [4], 22.4 µM; in experiment [5], greater than 100 µM; in experiment [6] it was 0.456 µM. For the same molecule, the TGI in experiment [7] is 20.5 µM; in experiment [8], 3.67 µM; in experiment [9], greater than 100 µM; in experiment [10], greater than 71.3 µM; in [11], 14.9 µM.

Turning to `Cc1ccc(N=C2C(c3ccccc3)=C(SC3=C(c4ccccc4)C(=Nc4ccc(C)cc4)c4ccccc43)c3ccccc32)cc1`, the TGI in experiment [1] is 22.4 µM; in experiment [2], 33.5 µM; in [3], greater than 100 µM; in [4], greater than 100 µM; in experiment [5] it was greater than 100 µM; in [6] it was greater than 100 µM. For the same molecule, the TGI in [7] was greater than 100 µM; in experiment [8], 24.6 µM; in experiment [9], greater than 100 µM; in experiment [10], greater than 100 µM; in experiment [11], greater than 53.5 µM.
